Measured values reported in patent US20240397947A1 (priority 2021, published 2024).

What was measured:
Assay type in all cases: in vivo
Xanthomonas orycea = assay: Comparison of SDHI fungicides on Xanthomonas orycea / rice / preventative (bacterial blight of rice); details: for Efficacy (%): rice cv. Balilla, preventative spray, 14 days incubation
Protocol: 3 week old rice plants cv. Balilla were treated with the formulated test compound in a spray chamber. Two days after application rice plants were infected by cutting the upper leaf level and the bacteria suspension applied on the cutting edges. After an incubation period of 14 days at 23° C. and 80% relative humidity, a visual assessment of the disease level was performed.

Xanthomonas campestris = assay: Effect on Xanthomonas campestris on Zinnia, foliar spray; details: for Efficacy 12 DAT* (%): 1 spray application, 12 days after treatment, rate per substance as in Table 3
Protocol: Vegetatively mature zinnia plants were treated with pydiflumetofen treatments by foliar spray (for Xanthomonas or Pseudomonas spp.). One to two days post treatment, the plants were atomized with a bacterial suspension (1×10^8 cfu/mL, determined with a spectrometer) and maintained at 100% relative humidity for 24 to 48 hours to promote infection. The plants were then maintained in a greenhouse or outdoor shade structure and disease incidence and severity recorded, as well as plant health and fresh weight if applicable.

Xanthomonas perforans = assay: Greenhouse test on tomato plants inoculated with Xanthomonas perforans (tomato bacterial spot), injured leaf area; details: up to 18 days after inoculation
Protocol: The experiment was carried out in a greenhouse in the Olericulture Sector of the Federal University of Goiás. The location has temperature and humidity control. Tomato seedlings cv. Totalle with two true leaves were transplanted into 1 L pots containing professional growing media. Two days after transplanting, the first application of the substances was carried out. Bion (acibenzolar-S-methyl, 25 g product/ha—12.5 g ai/ha), Miravis (pydiflumetofen, 0.60 kg product/ha—120 g ai/ha), Kocide (copper hydroxide, 1.50 kg product/ha) and Kasumin (kasugamycin, 2 L product/ha) were evaluated. The untreated control received only water. For application, the pots were placed on the floor and spraying was carried out using a spray device (having 6 nozzles with 0.5 m spacing between nozzles) with a pressurized CO2 sprayer and a spray volume of 300 L/ha.
The applications were carried out on days 1, 7 and 14. On day 9 (between the second and third applications), inoculation with a Xanthomonas perforans isolate was performed. The plants were uniformly sprayed once over all leaves with a suspension of the pathogen at a concentration of […] colony forming units per millilitre (cfu/mL). Three evaluations were performed at 6, 13 and 18 days after inoculation (DAI), and the percentage of injured leaf (area of leaf with bacterial spot) area was calculated.

Ralstonia spp. = assay: Effect on Ralstonia spp. on Geranium, drench, wilt
Protocol: Vegetatively mature geranium plants were treated with pydiflumetofen treatments by drench (Ralstonia spp.). One to two days post treatment, the inoculum was applied as a soil-drench. The plants were then maintained in a greenhouse or outdoor shade structure and disease incidence and severity were recorded.

## Cn1cc(C(=O)Nc2ccccc2-c2cc(F)c(F)c(F)c2)c(C(F)F)n1 [Fluxapyroxad]
Xanthomonas orycea; 6 Mg ai/L
  Efficacy (%): 0%
Xanthomonas orycea; 20 Mg ai/L
  Efficacy (%): 0%
Xanthomonas orycea; 60 Mg ai/L
  Efficacy (%): 0%

## Cn1cc(C(=O)Nc2cccc3c2[C@@H]2CC[C@H]3C2=C(Cl)Cl)c(C(F)F)n1 (racemic) [Benzovindiflupyr, reference compound]
Xanthomonas campestris
  Efficacy 12 DAT* (%): 63%

## CON(C(=O)c1cn(C)nc1C(F)F)C(C)Cc1c(Cl)cc(Cl)cc1Cl (centres unmarked) [Pydiflumetofen, 3-(difluoromethyl)-N-methoxy-1-methyl-N-[1-methyl-2-(2,4,6-trichloro-phenyl)ethyl]-1H-pyrazole-4-carboxamide]
Xanthomonas perforans
  control of Xanthomonas perforans (in words): good control
Ralstonia spp.
  control or suppression of Ralstonia spp. (in words): control or suppression
Ralstonia spp.; 14 DAT
  % Wilt 14 DAT: 3.5%
  % efficacity vs. inoculated check, 14 DAT: 84%
Ralstonia spp.; 28 DAT
  % Wilt 28 DAT: 18%
  % efficacity vs. inoculated check, 28 DAT: 87%
Xanthomonas campestris
  Efficacy 12 DAT* (%): 84%
Xanthomonas campestris; spray
  control of Xanthomonas campestris (in words): good control
Xanthomonas orycea; 6 mg ai/L
  control of Xanthomonas orycea (in words): marginal effect
Xanthomonas orycea; 20 to 60 mg ai/L
  control of Xanthomonas orycea (in words): good control
Xanthomonas orycea; 6 Mg ai/L
  Efficacy (%): 13%
Xanthomonas orycea; 20 Mg ai/L
  Efficacy (%): 72%
Xanthomonas orycea; 60 Mg ai/L
  Efficacy (%): 99%

## O=C(Nc1ccccc1-c1ccc(Cl)cc1)c1cccnc1Cl [Boscalid]
Xanthomonas orycea; 6 Mg ai/L
  Efficacy (%): 0%
Xanthomonas orycea; 20 Mg ai/L
  Efficacy (%): 0%
Xanthomonas orycea; 60 Mg ai/L
  Efficacy (%): 0%

## CC(C)c1ccc(Cl)cc1CN(C(=O)c1c(C(F)F)nn(C)c1F)C1CC1 [Isoflucypram]
Xanthomonas orycea; 6 Mg ai/L
  Efficacy (%): 0%
Xanthomonas orycea; 20 Mg ai/L
  Efficacy (%): 0%
Xanthomonas orycea; 60 Mg ai/L
  Efficacy (%): 0%
